In US9999614B2, “Combination for the prophylaxis and treatment of behavioural, mental, and cognitive disorders” (LTD “VALENTA-INTELLEKT”, priority 2012, dated 2018):

Tested on: amnesia in mice, as caused by scopolamine
Test: CPAR, model of amnesia caused by scopolamine
Format: in vivo
Settings: scopolamine 1 mg/kg i.p.
Procedure: For this, the active substances Melatonin 3 mg/Memantin 10 mg, Melatonin 5 mg/Memantin 20 mg, Melatonin 10 mg/Memantin 20 mg were taken, and doses recommended for human beings were converted into doses adapted for mice according to the formula “(active substance/70(average weight of a human being))×7”. Then the compositions were dissolved in 5 mL of the solution and, according to the given formula, introduced to animals intraperitoneally once a day for 5 days.
The CPAR test is the main model for evaluating substance influences on formation and replication of short-time memory in a normal condition and in an abnormal condition, i.e., induced amnesia. The CPAR is the most informative method among the methods that are used today for evaluating efficiency of substances with influence on the CNS of mammals (see, “Manual for Experimental (Pre-Clinical) Studies of New Pharmacological Substances”, 2000). The CPAR (conditioned passive avoidance reflex in a dark, light chamber) was taught to the mice on the basis of electrodermal response according to the method proposed by Cumin et al. (1982) with due regard to the recommendations given by Mondadori et al. (1990). The installation for mice, as produced by Lafayette Instrument Co., USA, was a black chamber with the electrode floor and a white plastic platform that was arranged on the floor in the center of the chamber. The mice, one by one, were put onto the plastic platform. The animals went/jumped down onto the electrode floor where they received an electric current shock, i.e., punishment. Electric current was supplied after the time when an animal stood on the floor with all its four legs. The natural response of the animals is to go back to the current-free or safe platform. […] Tests for memorizing CPAR were conducted in successive time intervals after amnesic action. In a case where an animal went/jumped down onto the platform within 1 minute, it was recorded as having retrograde amnesia of the passive avoidance skill. The compositions were studied in comparison with Melatonin 5 mg (mono-use) and Memantin 10 mg (mono-use), according to the above formula for adapting to animal models.
The compositions under study were dissolved in 5 mL of the solution and, according to the above formula, introduced to the animals intraperitoneally, once a day for 5 days.

[1] = 1 day after teaching, Melatonin 5 mg, Memantin 10 mg mono-use

With `CN1[C@@H]2C[C@@H](OC(=O)[C@H](CO)c3ccccc3)C[C@H]1[C@@H]1O[C@@H]12` [Scopolamine] the “Latent time of entering into the dark chamber” value [1] was 72.3 ± 25.6 s, the “Number of mice not entered into the dark chamber, %” value [1] was 25% and the “Number of mice not entered into the dark chamber, %” value (3 days after teaching, Melatonin 5 mg, Memantin 10 mg mono-use) was 33.3%. For the same molecule, the “Number of mice not entered into the dark chamber, %” value (7 days after teaching, Melatonin 5 mg, Memantin 10 mg mono-use) was 41.6%, the “Number of mice not entered into the dark chamber, %” value (10 days after teaching, Melatonin 5 mg, Memantin 10 mg mono-use) was 50% and the “CPAR amnesia observed, % of the animals” value (in 24 hours, p<0.001) was 90%. For the same molecule, the “Number of mice taught to CPAR (%)” value (agents i.p. once a day for 5 days, Melatonin 5 mg, Memantin 10 mg mono-use) was 58.3%.
